Tests used:
[1] = tested on: PINP; assay: Serum PINP ELISA; type: in vivo, mouse; conditions: d17
Method: ELISA. Mouse high-sensitivity IFN-α ELISA kit (42115-1) and IFN-β ELISA kit (42410-1) were purchased from PBL Assay Science. Mouse CTX-I ELISA kit (AC-06F1) and mouse PINP ELISA kit (AC-33F1) were purchased from Immunodiagnostic Systems. ELISA was performed using culture medium, serum, and bone marrow lysates. Serum was obtained from whole blood that was collected from a submandibular vein via facial vein puncture, coagulated for 30 minutes at room temperature, followed by centrifugation (2,000 ×g for 10 min, 4° C.) and collection of the supernatant (serum). Bone marrow was homogenized in a lysis buffer containing protease inhibitors at 4° C. for 30 minutes. ELISA was conducted in accordance with the manufacturer's instructions. A standard curve was performed for each experiment.

[2] = tested on: tumor-bearing femora; assay: Microcomputed tomography of tumor-bearing femurs; type: in vivo, mouse
Method: Microcomputed tomography. Microcomputed tomography (MicroCT) analyses were performed on femurs from tumor inoculated mice or naïve mice using a VivaCT 80 scanner with the 55-kVp source (Scanco, Southeastern, Pa.) as previously described (Wang, C. et al. “NOTCH signaling in skeletal progenitors is critical for fracture repair.” The Journal of Clinical Investigation 126, 1471-1481 (2016); Cao, C. et al. “Increased Ca2+ signaling through CaV1.2 promotes bone formation and prevents estrogen deficiency-induced bone loss.” JCI Insight 2, (2017)). Quantification of microCT data was calculated for distal femurs of mice treated with vehicle or DMXAA. Parameters quantified included bone volume/total volume (BV/TV) and connectivity density (Conn.D) within a region of 100 slides and 200 slides proximal to the distal growth plate.

## Cc1ccc2c(=O)c3cccc(CC(=O)O)c3oc2c1C [DMXAA, 2-(5,6-dimethyl-9-oxo-9H-xanthen-4-yl)acetic acid]
[1]
  serum PINP levels: had no effect on serum PINP levels
[2]; d11
  cortical bone volume/total volume (BV/TV): increased cortical bone volume/total volume (BV/TV)
  trabecular bone connectivity density (Conn.D): higher trabecular bone connectivity density (Conn.D)
[2]; d11 after tumor implantation
  trabecular bone loss and cortical bone lesions (3D reconstruction): less bone cancer-induced trabecular bone loss and fewer cortical bone lesions
